{"source": "paper PMC4045772", "about": "“Structure of the BTB Domain of Keap1 and Its Interaction with the Triterpenoid Antagonist CDDO” (PLoS ONE, 2014)", "target": "T1, Keap1 (Homo sapiens, UniProt Q14145)", "T1 construct": "BTB plus part of BACK domain, residues 35-235, uncleaved N-terminal His-tag, E. coli BL21(DE3); AlphaScreen displacement of Cul3 (Cul3/Rbx1)", "T1 sequence (P62877 whole entry, the tested form may be a part)": "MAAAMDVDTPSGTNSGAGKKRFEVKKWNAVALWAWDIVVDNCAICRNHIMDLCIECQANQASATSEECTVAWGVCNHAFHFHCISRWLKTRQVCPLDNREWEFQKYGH", "T1 sequence (Q14145 35-235)": "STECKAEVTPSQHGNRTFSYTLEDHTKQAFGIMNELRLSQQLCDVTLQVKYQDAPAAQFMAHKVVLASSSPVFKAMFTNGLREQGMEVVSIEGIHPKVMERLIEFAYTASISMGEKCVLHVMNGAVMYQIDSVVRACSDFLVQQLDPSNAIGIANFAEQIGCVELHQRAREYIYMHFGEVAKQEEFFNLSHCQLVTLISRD", "T1 sequence (Q13618 2-768, further chain)": "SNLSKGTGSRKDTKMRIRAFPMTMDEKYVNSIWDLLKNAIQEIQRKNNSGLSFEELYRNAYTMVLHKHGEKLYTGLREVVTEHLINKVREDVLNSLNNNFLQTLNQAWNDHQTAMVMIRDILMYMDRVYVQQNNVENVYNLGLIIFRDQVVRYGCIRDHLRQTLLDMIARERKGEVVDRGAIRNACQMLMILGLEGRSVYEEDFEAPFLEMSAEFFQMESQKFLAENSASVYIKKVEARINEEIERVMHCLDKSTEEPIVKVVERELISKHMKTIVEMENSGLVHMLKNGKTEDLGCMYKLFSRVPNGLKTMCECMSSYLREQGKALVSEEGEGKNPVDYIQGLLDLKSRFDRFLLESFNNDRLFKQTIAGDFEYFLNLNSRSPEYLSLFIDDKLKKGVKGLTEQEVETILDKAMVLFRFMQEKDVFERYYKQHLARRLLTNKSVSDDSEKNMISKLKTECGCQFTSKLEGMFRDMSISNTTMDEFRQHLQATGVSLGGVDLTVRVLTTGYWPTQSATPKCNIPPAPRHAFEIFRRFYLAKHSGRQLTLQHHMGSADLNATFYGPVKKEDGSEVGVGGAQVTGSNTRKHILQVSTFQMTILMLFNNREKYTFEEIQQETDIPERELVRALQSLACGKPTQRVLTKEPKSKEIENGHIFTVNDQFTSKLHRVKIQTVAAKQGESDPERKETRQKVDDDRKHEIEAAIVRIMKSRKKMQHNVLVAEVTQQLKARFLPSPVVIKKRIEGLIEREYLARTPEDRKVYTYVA", "experiment": "X-ray co-crystal structure ([…] Å) of the covalent complex; AlphaScreen inhibition of Cul3 binding with purified Keap1 […]", "data": [{"smiles": "CC1(C)CC[C@]2(C(=O)O)CC[C@]3(C)[C@H](C(=O)C=C4[C@@]5(C)C=C(C#N)C(=O)C(C)(C)[C@@H]5CC[C@]43C)[C@@H]2C1", "note": "[CDDO, 2-cyano-3,12-dioxooleana-1,9-dien-28-oic-acid]", "values": [{"measurement": "IC50", "result": "< 100", "unit": "nM"}]}]}
